# Data reported in US11584733B2, “Selective histone deacetylase inhibitors for the treatment of human disease” (Shuttle Pharmaceuticals, Inc., priority 2017, dated 2023).
# pEC50, pIC50: −log10 of the molar value.
# Tested on: Pan HDAC (HeLa Nuclear Extract)
# Assay: Pan HDAC assay (Enzo Fluor-de-Lys fluorometric kit, HeLa Nuclear Extract)
# Assay type: biochemical
# Procedure: The Pan HDAC assays described herein were performed as follows:
# Materials: Enzo Fluor-de-Lys HDAC fluorometric activity assay kit; 360 nm excitation 460 nm emission Plate Reader; Disposable pipettes; Pipet-aid; Pipette tips; Micro-pipetter; DMSO; Sterile micro-tubes and conical tubes; and Micro-centrifuge.
# Test compounds and control preparation: All test compounds' stock solutions were made in 100% DMSO. Test compound dilutions were made in HDAC Assay buffer with a final concentration of DMSO less than or equal to 1%. Vehicle control was HDAC Assay buffer with 1% DMSO.
# The reagents for the assay were prepared as follows:
# 1. All kit components were defrosted and these, and all dilutions described below, were kept on ice until use. All undiluted kit components are stable for several hours on ice.
# 2. A sufficient amount of HeLa Nuclear Extract (BML-KI140) or other HDAC source diluted in Assay Buffer (BML-KI143) was prepared to provide for the assays that were performed (# of wells×15 μl). A 30-fold dilution of the HeLa Extract means that 15 μL contains 0.5 μl of the undiluted Extract, an appropriate amount to use per well.
# 3. Dilution(s) of SAHA and/or Test Inhibitors were prepared in Assay Buffer (BML-K1143). Since 10 μl were used per well, and since the final volume of the HDAC reaction was 50 μl, these inhibitor dilutions were 5× their final concentration.
# 4. Dilution(s) of the Fluor de Lys® Substrate (BML-KI104; 50 mM) were prepared in Assay Buffer (BML-K1143) that were 2× the desired final concentration(s). For inhibitor screening, substrate concentrations at or below the Km are recommended. Twenty-five μL were used per well. Initial dilutions of 25-fold or greater in Assay Buffer (2.0 mM or less) yielded stable solutions (see NOTE on freezing and thawing below). Rapid mixing and dilution into room temperature buffer helped to prevent precipitation at high substrate concentration. […]
# 6. Samples were read in a microtiter-plate reading fluorimeter capable of excitation at a wavelength in the range 350-380 nm and detection of emitted light in the range 440-460 nm.
"pIC50 (Example 6, FIG. 18, 2 mg/mL formulation in 5% DMSO/40% PEG 400/55% PBS, read-out: IC50 against the PAN HDAC)",pEC50 (FIG. 4),SMILES,"inhibitor activity in the pan-HDACs assays (between 5 μM and 15 μM, FIGS. 2 to 4)"
5.72,–,"O=C(CCCCCCC(=O)Nc1cccc2c1CN(C1CCC(=O)NC1=O)C2=O)NO (stereo not drawn) [SP-2-93, N^1-(2-(2,6-dioxopiperidin-3-yl)-1-oxoisoindolin-4-yl)-N^8-hydroxyoctanediamide]",–
–,4.78,"O=C(CCCCCCC(=O)NC1CCC(=O)NC1=O)NO (stereo not drawn) [SP-2-59, N^1-(2,6-dioxopiperidin-3-yl)-N^8-hydroxyoctanediamide]",minimal inhibitor activity
